Source: US9402827B2, “Treatment of gout” (ARDEA BIOSCIENCES, INC., priority 2010, dated 2016)

Assays:
[1] = system: MSU-induced knee joint swelling; experiment: In vivo MSU-induced inflammation, rat knee joint study (Example 3C); design: species or system Sprague-Dawley rats
Procedure: [table] Groups 1 and 2 were orally dosed with Vehicle (sterile water) once daily for seven days from Day 1. […] Groups 6 and 7 were orally dosed with Lesinurad once daily for seven days from Day 1; Group 7 also received colchicine administered subcutaneously on Day 7. […] The injection was performed from the anterior aspect of the knee joint, which was slightly extended and flexed. […] Four hours after MSU administration, the rats were anesthetized, the diameter of right knee joints were measured with calipers; surface temperature for right knees were measured. Synovial lavage fluid from the knee was collected by injecting phosphate buffered saline with 1% BSA (0.2 mL) into the joint cavity, the fluid then collected, centrifuged and the supernatants stored at −80° C.

[2] = system: gout flares; experiment: Phase II clinical trial, gout dose response study: incidence of gout flares (Example 4); format: in vivo, human
Procedure: Purpose: To compare the proportion of subjects whose serum urate (sUA) level is <6.0 mg/dL after 28 days of dosing by treatment group. Official Title: Randomized, Double-Blind, Multicenter, Placebo-Controlled, Safety and Efficacy Study of Lesinurad Versus Placebo in the Treatment of Hyperuricemia in Patients With Gout Experimental dosage form: 200 mg capsule of Lesinurad, with appropriate pharmaceutically acceptable excipients Design: • Control: Placebo Control • Endpoint Classification: Safety/Efficacy Study • Intervention Model: Parallel Assignment • Masking: Double Blind (Subject, Caregiver, Investigator, Outcomes Assessor) • Primary Purpose: Treatment Primary Outcome Measures: Compare the proportion of subjects whose serum urate (sUA) level is <6.0 mg/dL after 28 days of dosing by treatment group. […] [table] Inclusion Criteria: • Male or post-menopausal or surgically sterile female. • Hyperuricemic (i.e., screening sUA≧8 mg/dL). • Meets criteria for the diagnosis of gout as per the American Rheumatism Association (ARA) Criteria for the Classification of Acute Arthritis of Primary Gout (see Appendix B). • Willing and able to give informed consent and adhere to visit/protocol schedules (informed consent must be given before the first study procedure is performed).

[3] = system: gout flares; experiment: Phase II clinical trial in gout patients with hyperuricemia: time to first flare, flare rate (Example 5); format: in vivo, human; conditions: for 4 Wk % Flare (percent of patients experiencing at least one gout flare by week 4): based on ITT patient number, colchicine prophylaxis; for Time to First Flare (cumulative flare rate), Day 0 / Time to First Flare (cumulative flare rate), Day 7 / Time to First Flare (cumulative flare rate), Day 14 / Time to First Flare (cumulative flare rate), Day 21 / Time to First Flare (cumulative flare rate), Day 28: colchicine prophylaxis 0.5-0.6 mg QD
Procedure: A phase II clinical trial including 123 gout patients with hyperuricemia (serum uric acid ≧8 mg/dL) in 4 treatment arms was conducted. The trail lasted 8 weeks, comprising a 2 week run in period, 4 week treatment period and 2 week follow-up.
Patients were randomly assigned to arms 1, 2, 3 or 4 and orally administered Lesinurad according to Table 9 below and FIG. 8; all received colchicine prophylaxis (0.5-0.6 mg QD) for 2 weeks prior to Lesinurad dosing and throughout the 4 week treatment period.

[4] = system: IL-1β; experiment: In vitro primary human monocyte assay, IL-1β; format: cell-based; conditions: primary human monocytes, FIG. 4A
Procedure: Blood (50-60 ml) was collected in Heparin vaccutainers (BD vaccutainer, Cat No-367874, Sodium Heparin, 10 ml tube; each holding ˜8-10 ml blood), which was immediately mixed to prevent coagulation. Accuspin-Histopaque 1077 (Sigma Aldrich cat no-A7054) was allowed to reach room temperature and diluted blood 1:1 in DPBS (Dulbecco's Phosphate-Buffered Saline (1×), liquid—Invitrogen, 14040-133), mixed by pipetting. The tubes were centrifuged (800 g; 30 seconds; room temp) to ensure all the Histopaque 1077 was below the high density polyethylene barrier.
Diluted blood (50 ml) was added to the upper chamber of each ACCUSPIN tube and centrifuged at room temp for 10 minutes at 1000×g or 15 minutes at 800×g, (brakes were off for this step; acc=1, dcl=1). PBMCs were collected from the PBS/Ficoll interphase with a transfer pipette and transferred to a new 50 mL tube. […]
Supernatant was decanted and 5 mL of RBC lysis solution added to the pellet and mixed well. […] The supernatant was discarded, resuspended in RPMI complete media, and the cells counted.
The hPBM cells isolated in step A were counted, centrifuged (300 g; 10 min) and the supernatant aspirated. […]
The centrifuged cells were then resuspended in 5 ml of MACS buffer and applied to the column. […] Cells were spun down (300 g, 5 min; supernatant discarded), resuspended in RPMI complete media and counted.

[5] = Arm 2 (200 mg week 1, 400 mg weeks 2-4)
[6] = Arm 3 (200 mg week 1, 400 mg week 2, 600 mg weeks 3-4)

In the case of O=C(O)CSc1nnc(Br)n1-c1ccc(C2CC2)c2ccccc12 [Lesinurad, 2-(5-bromo-4-(4-cyclopropylnaphthalen-1-yl)-4H-1,2,4-triazol-3-ylthio)acetic acid], the “Average increase in knee diameter” value ([1]; Lesinurad 60 mg/kg p.o. once daily Day1-Day7, 4 h after MSU, p < 0.001 vs Vehicle) is reported as 0.46 mm, the “MSU-induced increase in knee diameter, in words” value ([1]; Lesinurad 60 mg/kg/day) is reported as “significantly decreased the MSU-induced increase in knee diameter” and the “Mean Duration of Flares (by dose at time of flare)” value ([2]; 200 mg at time of flare) is reported as 4 days. For the same compound, the “% of patients with Flares by Dose at Time of Flare” value ([2]; 200 mg at time of flare (6/96)) was 6% (6/96), the “Mean Duration of Flares (by dose at time of flare)” value ([2]; 400 mg at time of flare) was 2 days and the “% of patients with Flares by Dose at Time of Flare” value ([2]; 600 mg at time of flare (3/32)) was 9% (3/32). The “Mean Duration of Flares” value ([2]; Randomized dose group 200 mg) was 4 days, the “% Patients with Flares” value ([2]; Randomized dose group 200 mg, N 31) was 6% and the “Mean Duration of Flares” value ([2]; Randomized dose group 400 mg) was 3.8 days. For the same compound, the “% Patients with Flares” value ([2]; Randomized dose group 600 mg, N 32) was 13%, the “4 Wk % Flare (percent of patients experiencing at least one gout flare by week 4)” value ([3]; Arm 1 (200 mg weeks 1-4)) was 10% and the “Time to First Flare (cumulative flare rate), Day 0” value (shortened to “Time to First Flare … Day 0”) ([3]; Arm 1 (200 mg weeks 1-4)) was 27. For the same compound, the “Time to First Flare (cumulative flare rate), Day 7” value (shortened to “Time to First Flare … Day 7”) ([3]; Arm 1 (200 mg weeks 1-4)) was 27, the “Time to First Flare (cumulative flare rate), Day 14” value (shortened to “Time to First Flare … Day 14”) ([3]; Arm 1 (200 mg weeks 1-4)) was 26 and the “Time to First Flare (cumulative flare rate), Day 21” value (“Time to First Flare … Day 21” below) ([3]; Arm 1 (200 mg weeks 1-4)) was 25. The “Time to First Flare (cumulative flare rate), Day 28” value (from here on “Time to First Flare … Day 28”) ([3]; Arm 1 (200 mg weeks 1-4)) was 25, the “4 Wk % Flare (percent of patients experiencing at least one gout flare by week 4)” value [3, 5] was 12% and the “Time to First Flare … Day 0” value [3, 5] was 31. The “Time to First Flare … Day 7” value [3, 5] was 31, the “Time to First Flare … Day 14” value [3, 5] was 30 and the “Time to First Flare … Day 21” value [3, 5] was 28. For the same compound, the “Time to First Flare … Day 28” value [3, 5] was 26, the “Time to First Flare … Day 0” value [3, 6] was 33 and the “Time to First Flare … Day 7” value [3, 6] was 31. For the same compound, the “Time to First Flare … Day 14” value [3, 6] was 31, the “Time to First Flare … Day 21” value [3, 6] was 29 and the “Time to First Flare … Day 28” value [3, 6] was 29. For the same compound, the “4 Wk % Flare (percent of patients experiencing at least one gout flare by week 4)” value ([3]; Arm 3 (200/400/600/600 mg)) was 13%, the IC50 ([4]; Monocyte) was roughly 50 µM and the IL-1β inhibition ([4]; 100 uM, 50 uM and 25 uM) was “dose dependent IL-1β inhibition”.
